# Experimental data as given in paper PMC9224512, “New Insights into the Determinants of Specificity in Human Type I Arginase: Generation of a Mutant That Is Only Active with Agmatine as Substrate” (International Journal of Molecular Sciences, 2022).
# Substitutions are numbered along the chain they refer to.
# Experiments:
# [1] = molecular target: T1, type I human arginase D181T/V182E (Homo sapiens, UniProt P05089, D181T/V182E); assay: Kinetic and inhibition studies, D181T/V182E double mutant; assay type: biochemical; conditions: substrate arginine
# T1 construct: made in house; host or cells: E. coli JM109
# T1 sequence (P05089 1-322 D181T/V182E): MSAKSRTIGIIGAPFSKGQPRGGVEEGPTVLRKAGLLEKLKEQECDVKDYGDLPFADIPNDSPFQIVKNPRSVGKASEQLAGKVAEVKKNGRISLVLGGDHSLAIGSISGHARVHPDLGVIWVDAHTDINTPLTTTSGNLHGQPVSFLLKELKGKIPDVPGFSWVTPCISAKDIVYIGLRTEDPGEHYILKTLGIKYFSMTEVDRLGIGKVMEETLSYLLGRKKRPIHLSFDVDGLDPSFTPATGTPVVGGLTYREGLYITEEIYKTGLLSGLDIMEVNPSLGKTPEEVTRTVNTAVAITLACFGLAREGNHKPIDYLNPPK
# Experimental: (§1) Bacterial cultures were grown with shaking at 37 °C in Luria Broth media, in the presence of ampicillin (100 μg/mL). The wild-type and mutant human liver arginase cDNAs were directionally cloned into the pBluescript II KS(+) expression vector and then expressed in E. coli JM109, following induction with 1 mM isopropyl β-D-thiogalactopyranoside. The bacterial cells were disrupted by sonication on ice (5 × 30 s pulses), centrifuged for 20 min at 12,000× g, and the obtained supernatant was precipitated with ammonium sulfate (60% saturation). The pellet, collected by centrifugation at 12,000× g for 10 min, was re-suspended in buffer 5 mM Tris–HCl (pH 7.5) containing 2 mM MnCl2 and dialyzed for 6 h at 4 °C against the same buffer. After incubation with 5 mM MnCl2 for 10 min at 60 °C, the enzyme variants were purified as previously described. The purity of the enzymes was evaluated by SDS–PAGE stained by Coomassie blue and immunodetection using an anti- rat arginase I antibody.
# (§2) The single, double, triple, and chimera variants of human arginase type I were obtained by PCR, using the QuickChange site-directed mutagenesis kit (Stratagene, La Jolla, CA, USA); the plasmid pBluescript II KS(+) containing the human liver arginase cDNA was used as template. To obtain the chimeric species of human arginase type I, serial mutations were made in each loop to be modified, using as template DNA the wild-type arginase gene or the previous done mutation, subcloned in the plasmid pBluescript II KS (+). Specifically, the residues present in the arginase structure were replaced by those corresponding to the agmatinase sequence of E. coli.
# (§3) All assays were initiated by adding the enzyme to a previously equilibrated buffer with the substrate in solution (the concentrations of used substrates were between 0.2–3 fold the Km). Urea was determined by a colorimetric method with α-isonitrosopropiophenone. The protein concentrations were determined by the Bradford’s method, with bovine serum albumin as standard. Initial velocity and enzymatic inhibition experiments were performed in duplicate and repeated three times. The inhibitory patterns were initially determined by double reciprocal plots and re-plots of intercepts and slopes versus inhibitor concentrations. […] Velocities are expressed as μmol of urea/10 min.
# [2] = test system: arginase N130A; parameters: method as in PMID 19093830; conditions: substrate arginine; cited from earlier work
# [3] = test system: human arginase D183N; parameters: method as in PMID 19093830; conditions: substrate arginine; cited from earlier work
# [4] = molecular target: T2, type I human arginase V182E (Homo sapiens, UniProt P05089, V182E); assay: Kinetic and inhibition studies, V182E mutant; assay type: biochemical; conditions: substrate arginine
# T2 sequence (P05089 1-322 V182E): T1 sequence (P05089 1-322 D181T/V182E) with T181D
# Experimental: as §1, §2, §3
# [5] = test system: arginase N130Y; parameters: method as in PMID 19093830; conditions: substrate arginine; cited from earlier work
# [6] = molecular target: T3, human arginase type I S137C-N139D (Homo sapiens, UniProt P05089, N139D/S137C); assay: Kinetic and inhibition studies, S137C-N139D mutant; assay type: biochemical
# T3 construct: made in house; host or cells: E. coli JM109
# T3 sequence (P05089 1-322 S137C/N139D): T1 sequence (P05089 1-322 D181T/V182E) with S137C, N139D, T181D, E182V
# Experimental: as §1, §2
# All assays were initiated by adding the enzyme to a previously equilibrated buffer with the substrate in solution (the concentrations of used substrates were between 0.2–3 fold the Km). Urea was determined by a colorimetric method with α-isonitrosopropiophenone. The protein concentrations were determined by the Bradford’s method, with bovine serum albumin as standard. […]
# [7] = molecular target: T4, Chimera A2 (I129T/N130Y/T131A+∆ P132-T134) of human arginase type I (Homo sapiens, UniProt P05089, DEL129-131/I129T/L133Y/N130Y/P132T/T134A); assay: Kinetic and inhibition studies, Chimera A2; assay type: biochemical
# T4 construct: made in house; host or cells: E. coli JM109
# T4 sequence (P05089 with tags, fused parts or gaps DEL129-131/P132T/L133Y/T134A): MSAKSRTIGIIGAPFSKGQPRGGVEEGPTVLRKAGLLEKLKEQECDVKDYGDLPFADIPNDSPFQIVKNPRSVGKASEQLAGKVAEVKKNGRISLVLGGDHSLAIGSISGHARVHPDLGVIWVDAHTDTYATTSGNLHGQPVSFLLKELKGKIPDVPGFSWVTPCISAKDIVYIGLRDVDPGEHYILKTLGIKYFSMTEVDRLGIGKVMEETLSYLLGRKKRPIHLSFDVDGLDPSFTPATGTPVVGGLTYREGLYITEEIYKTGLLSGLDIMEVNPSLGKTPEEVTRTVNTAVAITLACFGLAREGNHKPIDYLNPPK
# Experimental: as §1, §2, §3
# [8] = molecular target: single, double and triple mutants (N130D, S137C, N139D) of human arginase type I; assay: Kinetic properties stated for all loop A mutants together; assay type: biochemical; conditions: all mutants of Table 1; substrate arginine; read-out: Ki for competitive inhibition by the ornithine product
# Experimental: as §1
# The single, double, triple, and chimera variants of human arginase type I were obtained by PCR, using the QuickChange site-directed mutagenesis kit (Stratagene, La Jolla, CA, USA); the plasmid pBluescript II KS(+) containing the human liver arginase cDNA was used as template. […]
SMILES,kcat [1] [s⁻¹],"Km ([1]; pH 9.5, 2 mM Mn2+) [mM]",increase of Km for arginine [2] [fold],reduction of kcat [2] [%],increase in Km [3] [fold],reduction in kcat [3] [%],kcat [4] [s⁻¹],"Km ([4]; pH 9.5, 2 mM Mn2+) [mM]",decrease in kcat [5],kcat ([6]; substrate = labelled compound) [s⁻¹],"Km ([6]; substrate = labelled compound, pH 9.5, 2 mM Mn2+) [mM]",Inhibition type ([7]; substrate agmatine),Kis ([7]; substrate agmatine) [mM],Inhibition type [1],Kis (Ki) [1] [mM],Inhibition type [4],Kis [4] [mM],Ki ([6]; read-out: Ki^orn) [mM],"Inhibition by ornithine compared with wild-type arginase ([7]; pH 9.5, 37 °C, substrate 5 mM, Figure 4A)",Ki [8] [mM]
"N=C(N)NCCC[C@H](N)C(=O)O [Arginine, L-arginine]",188 ± 10,32 ± 5,50,37,27,12,187 ± 10,2.4 ± 0.2,approximately 20 times,83,10.8,linear competitive inhibition,9 ± 3,–,–,–,–,–,–,–
"NCCC[C@H](N)C(=O)O [Ornithine, L-ornithine]",–,–,–,–,–,–,–,–,–,–,–,–,–,mixed-type inhibition,71 ± 12,Competitive,3.2 ± 0.2,8.4,much more insensitive to inhibition by ornithine than the wild-type arginase,~7
